Experimental data reported in patent US5362739A (priority 1990, dated 1994).
Where a name gives a salt, the structure may show the parent alone. Read-outs that look alike come from different tables or passages of the source.

Experiments:
muscarinic receptors [1] = assay: Radio ligand binding: displacement of the muscarinic agonist 3H-Oxotremorine-M (3H-OXO-M); parameters: species or system rat (Hooded Lister); details: 2 nM 3H-OXO-M, rat cerebral cortex membranes, 2 mM magnesium chloride, 37° C., 30 min
muscarinic receptors [2] = assay type: binding, rat (Hooded Lister); details: 0.27 nM 3H-QNB, rat cerebral cortex membranes, 37° C., 30 min

`CON=C(C#N)C1=CC2CCN(C1)C2` (racemic) [Compound E6, (±)-α-(Methoxyimino)-α-(1-azabicyclo[3.2.1]oct-3-en-3-yl)acetonitrile oxalate salt] gave an IC50 (muscarinic receptors [1]) of 21 nM and an IC50 (muscarinic receptors [2]) of 330 nM.
In the case of `CON=C(Cl)C1=CC2CCN(C1)C2` (racemic) [Compound E2, (±) 1-Azabicyclo[3.2.1]oct-3-en-3-yl-N-methoxycarboximidoyl chloride oxalate salt], the IC50 (muscarinic receptors [1]) is reported as 100 nM and the IC50 (muscarinic receptors [2]) is reported as 1100 nM.
`CON=C(C)C1=CC2CCN(C1)C2` (racemic) [Compound E5, (±)trans 3-Acetyl-1-azabicyclo[3.2.1]oct-3-ene-O-methyloxime hydrochloride salt] gave an IC50 (muscarinic receptors [1]) of 175 nM and an IC50 (muscarinic receptors [2]) of 1450 nM.
In the case of `CON=CC1=CC2CCN(C1)C2` (mixture of isomers) [Compound E4, (±) syn-1-Azabicyclo[3.2.1]oct-3-en-3-ylcarboxaldehyde-O-methyloxime hydrochloride salt], the IC50 (muscarinic receptors [1]) is reported as 70 nM and the IC50 (muscarinic receptors [2]) is reported as 1250 nM.
Compound `CON=C(F)C1=CC2CCN(C1)C2` (racemic) [Compound E3, (±) 1-Azabicyclo[3.2.1]oct-3-en-3-yl-N-methoxcarboximidoyl fluoride oxalate salt] has an IC50 (muscarinic receptors [1]) of 26 nM and an IC50 (muscarinic receptors [2]) of 320 nM.
